pKi: −log10 of the molar value. Values belong to the molecule of their own block, whether it stands above or below them.
Tests used:
[1] = Water solubility (stated in words); assay type: physicochemical
[2] = biological target: T1, human A3 adenosine receptors (Homo sapiens, UniProt P0DMS8); experiment: Displacement of [125I]AB MECA binding at human A3 adenosine receptors expressed in HEK-293 cells; set-up: expressed in transfected cells; settings: Table 2, footnote a: [125I]AB MECA, human A3, HEK-293 cells
T1 sequence (P0DMS8 1-318): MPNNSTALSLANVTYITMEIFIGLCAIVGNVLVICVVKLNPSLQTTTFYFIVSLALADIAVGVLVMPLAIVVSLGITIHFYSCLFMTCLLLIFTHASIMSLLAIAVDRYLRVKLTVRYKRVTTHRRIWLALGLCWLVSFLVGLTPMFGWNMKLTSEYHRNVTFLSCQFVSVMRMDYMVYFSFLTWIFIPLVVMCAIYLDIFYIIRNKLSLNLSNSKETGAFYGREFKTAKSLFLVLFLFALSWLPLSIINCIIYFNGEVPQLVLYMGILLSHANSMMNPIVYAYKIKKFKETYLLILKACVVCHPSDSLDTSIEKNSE

[3] = biological target: T2, human A1 adenosine receptors (Homo sapiens, UniProt P30542); experiment: Displacement of [3H]DPCPX binding at human A1 adenosine receptors expressed in CHO cells; settings: Table 3: [3H]DPCPX, human A1, CHO cells
T2 construct: expressed in transfected cells; host or cells: CHO cells
T2 sequence (P30542 1-326): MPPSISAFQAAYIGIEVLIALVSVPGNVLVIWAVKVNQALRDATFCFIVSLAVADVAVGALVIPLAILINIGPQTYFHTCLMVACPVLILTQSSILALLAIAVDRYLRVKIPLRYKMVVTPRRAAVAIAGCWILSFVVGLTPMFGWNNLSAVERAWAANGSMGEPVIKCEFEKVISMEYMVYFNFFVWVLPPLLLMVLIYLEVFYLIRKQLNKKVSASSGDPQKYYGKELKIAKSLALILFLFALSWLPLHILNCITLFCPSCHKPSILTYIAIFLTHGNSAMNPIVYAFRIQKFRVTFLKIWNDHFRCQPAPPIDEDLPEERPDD

[4] = biological target: T3, human A2A adenosine receptors (Homo sapiens, UniProt P29274); experiment: Displacement of [3H]SCH58261 binding at human A2A adenosine receptors expressed in CHO cells
T3 construct: expressed in transfected cells; host or cells: CHO cells

[5] = biological target: T4, human A2B adenosine receptors (Homo sapiens, UniProt P29275); experiment: Displacement of [3H]DPCPX binding at human A2B adenosine receptors expressed in HEK-293 cells; settings: Table 3: [3H]DPCPX, HEK-293 cells
T4 construct: expressed in transfected cells; host or cells: HEK-293 cells
T4 sequence (P29275 1-332): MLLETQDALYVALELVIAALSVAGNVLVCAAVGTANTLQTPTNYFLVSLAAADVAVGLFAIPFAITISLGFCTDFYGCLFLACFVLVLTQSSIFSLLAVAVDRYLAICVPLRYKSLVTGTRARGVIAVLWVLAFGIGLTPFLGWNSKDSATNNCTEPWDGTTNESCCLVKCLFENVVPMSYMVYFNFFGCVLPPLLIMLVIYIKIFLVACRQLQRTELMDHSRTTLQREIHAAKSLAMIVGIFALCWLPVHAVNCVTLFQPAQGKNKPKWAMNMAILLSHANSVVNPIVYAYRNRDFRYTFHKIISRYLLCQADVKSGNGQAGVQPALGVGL

[6] = biological target: T1, human A3 adenosine receptors; experiment: Displacement of [3H]MRE 3008F20 binding at human A3 adenosine receptors expressed in CHO cells; set-up: expressed in transfected cells; host or cells: CHO cells; settings: for pKi: Table 3: [3H]MRE 3008F20, human A3, CHO cells
[7] = in words, discussion of Tables 2 and 3

T3 sequence (P29274 whole entry): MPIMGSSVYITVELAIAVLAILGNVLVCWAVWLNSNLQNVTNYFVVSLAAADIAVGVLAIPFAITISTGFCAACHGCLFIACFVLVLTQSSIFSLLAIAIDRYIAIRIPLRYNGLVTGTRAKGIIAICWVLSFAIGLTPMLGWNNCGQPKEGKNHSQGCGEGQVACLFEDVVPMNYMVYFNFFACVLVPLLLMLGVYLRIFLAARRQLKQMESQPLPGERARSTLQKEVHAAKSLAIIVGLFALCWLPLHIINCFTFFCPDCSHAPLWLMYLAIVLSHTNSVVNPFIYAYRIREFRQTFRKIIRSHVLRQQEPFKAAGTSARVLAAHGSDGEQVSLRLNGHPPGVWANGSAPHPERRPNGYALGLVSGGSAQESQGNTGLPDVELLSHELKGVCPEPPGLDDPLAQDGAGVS

water solubility [1]: significant water solubility
SMILES: CSc1c2c(nc(N)n3nc(-c4ccc(CN5CCN(C)CC5)o4)nc23)nn1C [Compound 56]

pKi [2]: < 6.00
SMILES: Nc1nc2c(cnn2CCc2ccccc2)c2nc(-c3ccco3)nn12 [SCH 58261, 5-amino-7-(2-phenylethyl)-2-(2-furyl)pyrazolo[4,3-e]1,2,4-triazolo[1,5-c]pyrimidine]

pKi ([3]; hydrochloride salt): 7.00 | pKi ([4]; Table 3: [3H]SCH58261, human A2A, CHO cells): 7.80 | pKi ([5]; hydrochloride salt): 7.64 | water solubility [1]: complete water solubility | pKi [6]: 8.05 | selectivity for A3 versus the other adenosine receptor subtypes ([6]; in words): very low | affinity for / interaction with A3 adenosine receptor subtype [6, 7]: increased
SMILES: CCNc1c2c(nc(NC(=O)Nc3ccc(OC)cc3)n3nc(-c4ccco4)nc23)nn1C.Cl [Compound 55, 1-(9-Ethylamino-2-furan-2-yl-8-methyl-8H-pyrazolo[4,3-e][1,2,4]triazolo[1,5-c]pyrimidin-5-yl)-3-(4-methoxy-phenyl)-urea hydrochloride salt]

pKi [3]: 7.30 | affinity for A2A adenosine receptor subtype [4, 7]: good affinity | pKi [5]: 7.09 | pKi [6]: 6.65
SMILES: CCNc1c2c(nc(N)n3nc(-c4ccco4)nc23)nn1C [Compound 38, N9-Ethyl-2-furan-2-yl-8-methyl-8H-pyrazolo[4,3-e][1,2,4]triazolo[1,5-c]pyrimidiine-5,9-diamine]

Source: patent US7064204B2, “Pharmaceutically active compounds having a tricyclic pyrazolotriazolopyrimidine ring structure and methods of use” (King Pharmacueticals Reserch and Development, Inc., priority 2002, dated 2006)
